According to patent publication US20210214448A1, “CCR5 BINDING AGENT FOR THE TREATMENT OF CCR5 POSITIVE METASTATIC CANCER” (CytoDyn Inc., priority 2020, published 2021):
“Also recorded” adds a separate entry of the source.

Tests used:
[1] = test system: CCR5+ metastatic Triple Negative Breast Cancer (mTNBC); test: Phase Ib/II mTNBC study: tumor imaging scans; format: in vivo, human; conditions: Patient D, with carboplatin
From the text: (§1) The primary objective of Phase 1b is to determine the safety, tolerability, and maximum tolerated dose (MTD) of PRO 140 in patients with TNBC, when combined with carboplatin to define a recommended Phase II dose of the combination. The primary objective of phase 2b is to evaluate the impact on progression-free survival (PFS) of the combination of PRO 140 and carboplatin in patients with CCR5+ TNBC previously treated with anthracyclines and taxanes in a neoadjuvant and adjuvant setting. For further investigational plan details please refer to section 5.3.5 in SNO01 (IND 141723).
(§2) Each treatment cycle consisted of 21 days. […] This treatment regimen was used for all subjects enrolled in the mTNBC study, unless otherwise indicated.
Scans were taken at the end of every two cycles (every 6 weeks). The subject had Scan 1 after six weeks, Scan 2 after 12 weeks, and Scan 3 after 18 weeks (Table 4).

HIV-1 = conditions: at concentrations that do not affect CCR5 chemokine receptor activity; Olson 1999, Trkola 2001; cited from earlier work
[2] = Phase Ib/II mTNBC study: adverse events; format: in vivo; conditions: Patient D, weekly 350 mg leronlimab + carboplatin every three weeks, up to Cycle 6 Day 1 visit
From the text: as §1, §2

[3] = test system: circulating tumor cells (CTC), epithelial mesenchymal transition cells (EMTs) and cancer-associated macrophage-like cells (CAMLs); test: Phase Ib/II mTNBC study: CTC, EMT and CAML counts in blood (LifeTrac Assay, CellSieve filtration); format: in vivo, human; conditions: for Number of CTCs (PD-L1) / Number of Apoptotic CTCs (CCR5) / Number of CAMLs (CCR5) / Number of CAMLs (PD-L1) / Number of CTCs (CCR5) / Number of EMTs (CCR5) / Number of EMTs (PD-L1) / CAML- Total / EMT-Total / Number of Apoptotic CTC (PD-L1) / CTC-Total: Patient D; for Number of CTCs (PD-L1): baseline 0; for Number of Apoptotic CTCs (CCR5) / Number of CAMLs (CCR5) / Number of CAMLs (PD-L1) / Number of CTCs (CCR5) / Number of EMTs (CCR5) / Number of EMTs (PD-L1): baseline 1; for CAML- Total / EMT-Total: baseline 2; for Number of Apoptotic CTC (PD-L1): baseline 3; for CTC-Total: baseline 5
From the text: as §1, §2
The blood sample for circulating tumor cells (CTC) and cancer-associated macrophage-like cells (CAMLs) assessment was collected at baseline and subsequently at Day 1 of each treatment cycle to assess changes in CTCs and CAMLs after treatment and to perform correlative analysis between CCR5 expression and PD-L1 expression.
Creatv Microtech has developed a size-based technology and detection methodology (LifeTrac Assay) that enables the collection and characterization of all cancer-associated cells in the blood i.e., CTCs, epithelial mesenchymal transition cells (EMTs) and CAMLs [Adams Cytometry 2015, Adams RSC 2014]. The CellSieve™ filtration platform is used to capture CAMLs and CTCs.

[4] = test system: metastatic HER2+ breast cancer; test: Single patient emergency use IND: CT/MRI imaging of metastases; format: in vivo, human; conditions: Patient A, 700 mg weekly
From the text: This subject, Patient A, is a person with a diagnosis of metastatic breast cancer, stage IV. The subject previously received Taxotere/Herceptin/Pertuzumab as frontline therapy for metastatic HER2 positive breast cancer. They had partial response for their systemic disease, but then developed diffuse brain metastases (systemic disease stable). They completed whole-brain radiation therapy and continues on Herceptin and Pertuzumab. They have neuropathy and residual side effects from chemotherapy, which limits use of current second-line options due to concern for side effects.
Prior to enrolling in the trial, the patient had 18 identifiable tumor spots in the brain.

CTC and EMT = test: Single patient emergency use IND: CTC and EMT counts; format: in vivo, human; conditions: Patient A, 700 mg weekly, approximately ten weeks after initiation
Procedure: Approximately ten weeks following the initiation of treatment, the subject's CTC and EMT counts were measured, and zero CTCs and zero EMTs were identified. Lesion and nodule sizes were measured in the breast and liver of Patient A and metastases were also qualitatively described (FIG. 6). Protein expression levels of CCR5 (FIG. 7A) and PD-L1 (FIG. 7B) on individual CAMLs from Patient A were measured by flow cytometry and reported as Mean Fluorescence Intensity (MFI). CCR5 MFI (“CCR5 INT”) was calculated by subtracting background signal of a negative control sample from the experimental value. CAML size was also measured and reported in […].

[5] = test system: MDA-MB-231 cells expressing Luc2-eGFP (MDA-MB-231.pFLUG); test: Breast cancer tumor / lung metastasis model in mice, bioluminescence imaging; format: in vivo, female NCI Athymic NCr-nu/nu mice
Procedure: Each mouse received one million (10^6) MDA-MB-231 cells expressing Luc2-eGFP (called MDA-MB-231.pFLUG) through the tail vein. […] Treatment was started one day before the injection.
In vivo bio-luminescence imaging was performed following intraperitoneal injection with 100 μl of D-luciferin (30 mg/mL) to the control and treated groups. […] FIG. 1D is a plot of the percentage of mice with tumors.

CCR5 = CCR5 (Homo sapiens, UniProt P51681); conditions: Jiao 2018; cited from earlier work
Chain of CCR5 (P51681 whole entry): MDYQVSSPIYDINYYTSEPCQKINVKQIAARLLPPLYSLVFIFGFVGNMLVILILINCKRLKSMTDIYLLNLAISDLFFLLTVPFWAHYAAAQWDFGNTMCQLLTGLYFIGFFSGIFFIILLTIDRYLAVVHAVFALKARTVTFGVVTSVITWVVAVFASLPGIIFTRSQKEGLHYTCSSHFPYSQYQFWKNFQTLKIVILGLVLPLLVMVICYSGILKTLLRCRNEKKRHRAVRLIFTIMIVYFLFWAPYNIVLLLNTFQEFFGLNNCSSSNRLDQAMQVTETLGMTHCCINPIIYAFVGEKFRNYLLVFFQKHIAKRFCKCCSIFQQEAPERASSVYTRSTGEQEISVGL

leronlimab: humanized monoclonal anti-CCR5 antibody, humanized version of the murine mAb PA14
New lung nodules ([1]; Scan 3): no new lung nodules found | New lymphadenopathy or metastatic disease on diagnostic CT chest, abdomen and pelvis ([1]; Scan 3): No new | Previously identified right hilar lymph node ([1]; Scan 3): resolved | Right lung metastasis maximum standardized uptake values (SUVs) ([1]; Scan 3, previously 15.3): values (SUVs) of 6.8 (previously | Decrease in size of target lesion ([1]; scan 3 vs previous 2.4×1.9): 20% | HIV-1 entry and replication (HIV-1): potently inhibits | Serious adverse events [2]: no serious adverse events had been reported | Detectable levels of CTC ([3]; Patient C (second subject), with carboplatin, after two weeks of treatment): no detectable levels | Reduction in EMT cells ([3]; Patient C, with carboplatin, after two weeks of treatment): 70% | CAML count ([3]; Patient C, with carboplatin, following at least two weeks of treatment, initial count 45): 30 | CCR5 expression on cancer-associated cells ([3]; Patient D (first patient), with carboplatin, approximately 11 weeks of treatment): large reductions | Detectable circulating tumor cells (CTC) or putative metastatic tumor cells in peripheral blood ([3]; Patient D (first subject), with carboplatin, following 16 weeks of treatment): no detectable | Number of CTCs (PD-L1) ([3]; with carboplatin, C1D1): 0 | Number of Apoptotic CTCs (CCR5) ([3]; with carboplatin, C1D1): 0 | Number of CAMLs (CCR5) ([3]; with carboplatin, C1D1): 0 | Number of CAMLs (PD-L1) ([3]; with carboplatin, C1D1): 1 | Number of CTCs (CCR5) ([3]; with carboplatin, C1D1): 0 | Number of EMTs (CCR5) ([3]; with carboplatin, C1D1): 1 | Number of EMTs (PD-L1) ([3]; with carboplatin, C1D1): 1 | CAML- Total ([3]; with carboplatin, C1D1): 1 | EMT-Total ([3]; with carboplatin, C1D1): 2 | Number of Apoptotic CTC (PD-L1) ([3]; with carboplatin, C1D1): 0 | CTC-Total ([3]; with carboplatin, C1D1): 0 | Number of CTCs (PD-L1) ([3]; with carboplatin, C2D1): 0 | Number of Apoptotic CTCs (CCR5) ([3]; with carboplatin, C2D1): 0 | Number of CAMLs (CCR5) ([3]; with carboplatin, C2D1): 1 | Number of CAMLs (PD-L1) ([3]; with carboplatin, C2D1): 2 | Number of CTCs (CCR5) ([3]; with carboplatin, C2D1): 0 | Number of EMTs (CCR5) ([3]; with carboplatin, C2D1): 0 | Number of EMTs (PD-L1) ([3]; with carboplatin, C2D1): 0 | CAML- Total ([3]; with carboplatin, C2D1): 3 | EMT-Total ([3]; with carboplatin, C2D1): 0 | Number of Apoptotic CTC (PD-L1) ([3]; with carboplatin, C2D1): 0 | CTC-Total ([3]; with carboplatin, C2D1): 0 | Number of CTCs (PD-L1) ([3]; with carboplatin, C3D1): 0 | Number of Apoptotic CTCs (CCR5) ([3]; with carboplatin, C3D1): 0 | Number of CAMLs (CCR5) ([3]; with carboplatin, C3D1): 3 | Number of CAMLs (PD-L1) ([3]; with carboplatin, C3D1): 1 | Number of CTCs (CCR5) ([3]; with carboplatin, C3D1): 0 | Number of EMTs (CCR5) ([3]; with carboplatin, C3D1): 0 | Number of EMTs (PD-L1) ([3]; with carboplatin, C3D1): 0 | Number of Apoptotic CTC (PD-L1) ([3]; with carboplatin, C3D1): 0 | Number of CTCs (PD-L1) ([3]; with carboplatin, C4D1): 0 | Number of Apoptotic CTCs (CCR5) ([3]; with carboplatin, C4D1): 0 | Number of CAMLs (CCR5) ([3]; with carboplatin, C4D1): 0 | Number of CAMLs (PD-L1) ([3]; with carboplatin, C4D1): 1 | Number of CTCs (CCR5) ([3]; with carboplatin, C4D1): 0 | Number of EMTs (CCR5) ([3]; with carboplatin, C4D1): 0 | Number of EMTs (PD-L1) ([3]; with carboplatin, C4D1): 0 | CAML- Total ([3]; with carboplatin, C4D1): 1 | EMT-Total ([3]; with carboplatin, C4D1): 0 | Number of Apoptotic CTC (PD-L1) ([3]; with carboplatin, C4D1): 0 | CTC-Total ([3]; with carboplatin, C4D1): 0 | Number of CTCs (PD-L1) ([3]; with carboplatin, C5D1): 0 | Number of Apoptotic CTCs (CCR5) ([3]; with carboplatin, C5D1): 0 | Number of CAMLs (CCR5) ([3]; with carboplatin, C5D1): 1 | Number of CAMLs (PD-L1) ([3]; with carboplatin, C5D1): 2 | Number of CTCs (CCR5) ([3]; with carboplatin, C5D1): 0 | Number of EMTs (CCR5) ([3]; with carboplatin, C5D1): 0 | Number of EMTs (PD-L1) ([3]; with carboplatin, C5D1): 0 | CAML- Total ([3]; with carboplatin, C5D1): 3 | EMT-Total ([3]; with carboplatin, C5D1): 0 | Number of Apoptotic CTC (PD-L1) ([3]; with carboplatin, C5D1): 0 | CTC-Total ([3]; with carboplatin, C5D1): 0 | CAML- Total ([3]; with carboplatin, C6D1): 8 | EMT-Total ([3]; with carboplatin, C6D1): 0 | CTC-Total ([3]; with carboplatin, C6D1): 0 | Detectable circulating tumor cells (CTCs) or putative metastatic tumor cells in peripheral blood ([3]; first patient of Phase 1b/2 trial, at 11 weeks of treatment): no detectable | Decrease of total CTC+EMT counts ([3]; third subject, with carboplatin, first two weeks of treatment): 75% | New metastatic spots in the liver, lung and brain (CT scan) ([4]; approximately four weeks after initial treatment): no sign of new metastatic spots | Reduction in tumor volume of the largest brain tumor ([4]; approximately two months): 56% | New metastasis in the brain ([4]; approximately two months after initial treatment): no new metastasis was detectable | Identifiable lesions in the brain ([4]; approximately two months, 18 identifiable tumor spots before): three | CTC count (CTC and EMT): zero | EMT count (CTC and EMT): zero | Tumor volume in a breast cancer tumor model ([5]; mouse, in vivo): significant reduction

COC[C@@H](c1ccc(C(F)(F)F)cc1)N1CCN(C2(C)CCN(C(=O)c3c(C)ncnc3C)CC2)C[C@@H]1C [vicriviroc]
Cell killing mediated by DNA-damaging chemotherapeutic agents (CCR5): dramatically enhanced

maraviroc
Cell killing mediated by DNA-damaging chemotherapeutic agents (CCR5): dramatically enhanced | Lung metastasis / homing of breast cancer cells to the lungs in mouse model ([5]; FIG. 1): block homing of breast cancer cells to the lungs; also recorded: inhibition of lung metastasis; also recorded: effectively blocked lung metastases
